Patent publication US11098041B2 (Merck Patent GmbH, priority 2014, dated 2021)

Experiments:
full-length human BTK = full-length human BTK (Homo sapiens (Human), UniProt Q06187); assay: Assay A: microfluidic off-chip mobility shift assay against BTK enzyme; assay type: biochemical
Procedure: Assay A: Microfluidic Off-Chip Mobility Shift Assay Protocol for Potency Assessment Against BTK Enzyme
The protocol below describes microfluidic, off-chip mobility shift kinase assay to measure inherent potency of compounds against BTK enzyme.
5 uL of enzyme buffer and 7.5 uL of ATP/kinKDR peptide substrate mix were added to Matrix (#115304) 384-well, sterile, polypropylene plates (Thermo Fisher Scientific, Hudson, N.H.) with 125 nL of serially diluted compounds prepared in 100% DMSO, and incubated for 90 min. at 27° C. Following the incubation period, reactions were stopped by adding 60 uL stop buffer consisting of 100 mM HEPES, pH 7.5, 0.015% Brij-35 (30%), 0.277% Coating Reagent #3 (Caliper Life Sciences, Mountain View, Calif.), 5% DMSO. Stopped reactions were monitored at −2 PSI, −3000 V/−700 V in a LabChip 3000 plate reader from Caliper Life Sciences, a PerkinElmer Company (Hopkinton, Mass.), and the activity was measured by off-chip mobility shift assay measuring the charge/mass difference between substrate and product resulting from peptide phosphorilation. IC50 and efficacy were determined by plotting log [Inhibitor] vs. % Activity in GeneData Screener (Basel. Switzerland).

[1] = test system: anti-IgM-induced expression of CD69 on CD19 positive cells (B cells) in human PBMCs; assay: Assay C: PBMC IC50 assay (anti-IgM-induced CD69 expression); assay type: cell-based; conditions: anti-IgM stimulation
Procedure: Btk is critical for mediating the signalling of B cell antigen receptor (BCR) after anti-IgM stimulation. Based on this principle, a functional cell-based assay was established to determine the potency of compounds at inhibiting anti-IgM-induced expression of CD69, a downstream BCR signaling event, in freshly isolated human peripheral blood mononuclear cells (PBMCs). In the assay, a 90 μl PBMC suspension containing 2.5×10^5 cells was pre-treated with 10 μl of test compound at various concentrations for an hour, and then incubated overnight (approximately 16-18 hours) with 5 μl 420 μg/ml affiniPure F(ab′)2 fragment goat anti-human IgM Fc fragment per well (Dianova, Cat. No.: 109-006-129). After the incubation, the cells were washed and immunostained with an APC-labeled mouse anti-human CD69 (BD Biosciences; clone: FN50), a PerCP-Cy5.5 labelled mouse anti-human CD19 (BD Biosciences; clone: SJ25C1) and a FITC-labelled mouse anti-human CD3 (BD Biosciences; clone: HIT3a), and fixed for flow cytometric analysis of CD69 expression on CD19 positive cells (B cells). The percentage of CD69 expressing CD19 positive cells was plotted against the concentrations of test compounds to obtain a concentration response curve, and calculate an IC50 value as a measure of the potency of test compounds in the assay.

[2] = target: BTK C481S (His-TEV-hsBTK(328-659)(C481S)) (Homo sapiens (Human), UniProt Q06187, C481S); assay: Assay B: microfluidic off-chip mobility shift assay against BTK C481S enzyme; assay type: biochemical; conditions: BTK C481S mutant
Chain of BTK C481S (His-TEV-hsBTK(328-659)(C481S)) (Q06187 328-659 C481S): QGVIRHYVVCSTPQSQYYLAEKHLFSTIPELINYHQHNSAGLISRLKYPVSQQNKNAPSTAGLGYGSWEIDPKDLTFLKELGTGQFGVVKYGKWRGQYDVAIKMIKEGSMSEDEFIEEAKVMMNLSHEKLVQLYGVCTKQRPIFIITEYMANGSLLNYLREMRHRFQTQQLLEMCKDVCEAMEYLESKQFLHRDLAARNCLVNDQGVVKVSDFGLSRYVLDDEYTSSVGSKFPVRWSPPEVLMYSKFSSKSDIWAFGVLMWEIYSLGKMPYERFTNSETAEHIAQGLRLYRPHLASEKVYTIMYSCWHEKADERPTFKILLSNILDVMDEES
Procedure: The mechanics of the assay platform are described by the vendor (PerkinElmer, Hopkinton, Mass.) on their website at the following URL: http://caliperls.com.
5 uL of enzyme buffer and 7.5 uL of ATP/KinKDR peptide substrate mix were added to Matrix (#4315) 384-well, sterile, flat-bottom polypropylene plates (Thermo Fisher Scientific, Hudson, N.H.) with 125 nL of serially diluted compounds prepared in 100% DMSO, and incubated for 90 min. at 25° C. Following the incubation period, reactions were terminated by adding 65 uL quench buffer consisting of 100 mM HEPES, pH 7.5, 0.015% Brij-35 (30%), 0.277% Coating Reagent #3 (PerkinElmer, Mountain View, Calif.), 5% DMSO. Terminated reactions were monitored at −2 PSI, −3000 V/−700 Volts in a LabChip 3000 plate reader from Caliper Life Sciences, a PerkinElmer Company (Hopkinton, Mass.), and the activity was quantified by laser-induced fluorescence measuring the charge/mass difference between substrate and product resulting from peptide phosphorylation. IC50 and efficacy were determined by plotting log [Inhibitor] vs. % Activity in GeneData Screener (Basel, Switzerland).

Chain of full-length human BTK (Q06187 whole entry): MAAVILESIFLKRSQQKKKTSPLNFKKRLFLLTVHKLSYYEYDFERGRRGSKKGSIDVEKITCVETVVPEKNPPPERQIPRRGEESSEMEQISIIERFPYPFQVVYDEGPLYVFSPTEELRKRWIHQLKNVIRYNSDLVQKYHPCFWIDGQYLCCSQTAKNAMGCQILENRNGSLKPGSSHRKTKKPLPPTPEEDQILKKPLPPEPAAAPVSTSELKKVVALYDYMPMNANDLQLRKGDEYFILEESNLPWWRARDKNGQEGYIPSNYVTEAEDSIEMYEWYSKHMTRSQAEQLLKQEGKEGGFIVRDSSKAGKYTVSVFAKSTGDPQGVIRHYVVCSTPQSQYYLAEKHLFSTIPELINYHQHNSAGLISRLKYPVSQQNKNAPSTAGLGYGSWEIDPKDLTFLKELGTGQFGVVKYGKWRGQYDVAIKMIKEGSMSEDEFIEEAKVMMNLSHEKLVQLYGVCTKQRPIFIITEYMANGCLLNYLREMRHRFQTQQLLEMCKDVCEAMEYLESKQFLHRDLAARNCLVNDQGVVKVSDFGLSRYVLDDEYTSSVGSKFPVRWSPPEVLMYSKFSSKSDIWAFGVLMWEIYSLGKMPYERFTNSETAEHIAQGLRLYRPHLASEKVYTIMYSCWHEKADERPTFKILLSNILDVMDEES

IC50 (full-length human BTK)	IC50 [2]	Compound	IC50 [1]
< 100 nM	–	CCn1cc(-c2nc3c(-c4ccc(CNC(=O)c5noc(C(C)(C)C)n5)c(F)c4)ccnc3[nH]2)cn1 [Example 131, 5-tert-Butyl-[1,2,4]oxadiazole-3-carboxylic acid 4-[2-(1-ethyl-1H-pyrazol-4-yl)-3H-imidazo[4,5-b]pyridin-7-yl]-2-fluoro-benzylamide]	< 100 nM
–	–	Cn1cc(-c2nc3c(-c4ccc(CNC(=O)c5nc(C6(C)CC6)no5)c(F)c4)ccnc3[nH]2)cn1 [Example 165, N-([2-fluoro-4-[2-(1-methyl-1H-pyrazol-4-yl)-3H-imidazo[4,5-b]pyridin-7-yl]phenyl]methyl)-3-(1-methylcyclopropyl)-1,2,4-oxadiazole-5-carboxamide]	100 to 1000 nM
< 100 nM	–	Cn1cc(-c2nc3c(-c4ccc(C5(NC(=O)c6noc(C(C)(C)C)n6)CC5)c(F)c4)ccnc3[nH]2)cn1 [Example 51, 5-tert-Butyl-N-(1-[2-fluoro-4-[2-(1-methyl-1H-pyrazol-4-yl)-3H-imidazo[4,5-b]pyridin-7-yl]phenyl]cyclopropyl)-1,2,4-oxadiazole-3-carboxamide]	< 100 nM
< 100 nM	–	CC(C)(C)c1noc(C(=O)NCc2ccc(-c3ccnc4[nH]c(-c5ccc(CN6CCOCC6)cn5)nc34)cc2F)n1 [Example 162, 3-tert-butyl-N-[(2-fluoro-4-[2-[5-(morpholin-4-ylmethyl)pyridin-2-yl]-3H-imidazo[4,5-b]pyridin-7-yl]phenyl)methyl]-1,2,4-oxadiazole-5-carboxamide]	< 100 nM
< 100 nM	–	C=CC(=O)Nc1ccccc1-c1nc2nccc(-c3ccc(CNC(=O)c4nc(C(C)(C)C)no4)c(F)c3)c2[nH]1 [Example 160, 3-tert-butyl-N-[(2-fluoro-4-[2-[2-(prop-2-enamido)phenyl]-3H-imidazo[4,5-b]pyridin-7-yl]phenyl)methyl]-1,2,4-oxadiazole-5-carboxamide]	< 100 nM
< 100 nM	–	CN1CC=C(c2ccc(-c3nc4c(-c5ccc(CNC(=O)c6noc(C(C)(C)C)n6)c(F)c5)ccnc4[nH]3)nc2)CC1 [Example 85, 5-tert-Butyl-N-[(2-fluoro-4-[2-[5-(1-methyl-1,2,3,6-tetrahydropyridin-4-yl)pyridin-2-yl]-3H-imidazo [4,5-b]pyridin-7-yl]phenyl)methyl]-1,2,4-oxadiazole-3-carboxamide; trifluoroacetic acid]	100 to 1000 nM
–	–	CC(C)(C)c1noc(C(=O)NCc2ccc(-c3ccnc4[nH]c(C5CC5)nc34)cc2F)n1 [Example 28, 3-tert-Butyl-[1,2,4]oxadiazole-5-carboxylic acid 4-(2-cyclopropyl-3H-imidazo[4,5-b]pyridin-7-yl)-2-fluoro-benzylamide]	1000 to 5000 nM
< 100 nM	–	COc1ccc(-c2nc3c(-c4ccc(CNC(=O)c5nc(C(C)(C)C)no5)c(F)c4)ccnc3[nH]2)nc1 [Example 161, 3-tert-butyl-N-([2-fluoro-4-[2-(5-methoxypyridin-2-yl)-3H-imidazo[4,5-b]pyridin-7-yl]phenyl]methyl)-1,2,4-oxadiazole-5-carboxamide]	< 100 nM
< 100 nM	< 100 nM	5-tert-Butyl-[1,3,4]oxadiazole-2-carboxylic acid 2-fluoro-4-{2-[1-(2-morpholin-4-yl-ethyl)-1H-pyrazol-4-yl]-3H-imidazo[4,5-b]pyridin-7-yl}-benzylamide [Example 120]	–
< 100 nM	< 100 nM	CCn1cc(C(=O)NCc2ccc(-c3ccnc4[nH]c(-c5cnn(C)c5)nc34)cc2F)cn1 [Example 20, 1-Ethyl-1H-pyrazole-4-carboxylic acid 2-fluoro-4-[2-(1-methyl-1H-pyrazol-4-yl)-3H-imidazo[4,5-b]pyridin-7-yl]-benzylamide]	–
–	–	Cn1cc(-c2nc3c(-c4ccc(CNC(=O)c5cc6c(s5)CCCC6)c(F)c4)ccnc3[nH]2)cn1 [Example 132, N-(2-fluoro-4-(2-(1-methyl-1H-pyrazol-4-yl)-3H-imidazo[4,5-b]pyridin-7-yl)benzyl)-4,5,6,7-tetrahydrobenzo[b]thiophene-2-carboxamide]	100 to 1000 nM
< 100 nM	< 100 nM	CC(C)(C)c1nc(C(=O)NCc2ccc(-c3ccnc4[nH]c(-c5cnn(CCN6CCOCC6)c5)nc34)cc2F)no1 [Example 119, 5-tert-Butyl-[1,2,4]oxadiazole-3-carboxylic acid 2-fluoro-4-{2-[1-(2-morpholin-4-yl-ethyl)-1H-pyrazol-4-yl]-3H-imidazo[4,5-b]pyridin-7-yl}-benzylamide]	–
–	–	Cn1cc(-c2nc3c(-c4ccc(CNC(=O)C5CCC(C(C)(C)C)CC5)c(F)c4)ccnc3[nH]2)cn1 (stereo not drawn) [Example 15, 4-tert-Butyl-cyclohexanecarboxylic acid 2-fluoro-4-[2-(1-methyl-1H-pyrazol-4-yl)-3H-imidazo[4,5-b]pyridin-7-yl]-benzylamide]	1000 to 5000 nM
< 100 nM	< 100 nM	CC(C)(C)c1noc(C(=O)NCc2ccc(-c3ccnc4[nH]c(-c5cccnc5)nc34)cc2F)n1 [Example 149, 3-(tert-butyl)-N-(2-fluoro-4-(2-(pyridin-3-yl)-3H-imidazo[4,5-b]pyridin-7-yl)benzyl)-1,2,4-oxadiazole-5-carboxamide]	–
100 to 1000 nM	< 100 nM	CC(C)(C)c1nc(C(=O)Nc2cccc(-c3ccnc4[nH]c(-c5ccc(N6CCC(F)(F)CC6)cc5)nc34)c2CO)no1 [Example 48, 5-tert-Butyl-N-(3-[2-[4-(4,4-difluoropiperidin-1-yl)phenyl]-3H-imidazo[4,5-b]pyridin-7-yl]-2-(hydroxymethyl)phenyl)-1,2,4-oxadiazole-3-carboxamide]	–
< 100 nM	< 100 nM	CC(C)(C)c1nnc(C(=O)NCc2ccc(-c3ccnc4[nH]c(-c5cnn(C6CCOCC6)c5)nc34)cc2F)o1 [Example 126, 5-tert-Butyl-[1,3,4]oxadiazole-2-carboxylic acid 2-fluoro-4-{2-[1-(tetrahydro-pyran-4-yl)-1H-pyrazol-4-yl]-3H-imidazo[4,5-b]pyridin-7-yl}-benzylamide]	–
< 100 nM	< 100 nM	Cn1cc(-c2nc3c(-c4ccc(CNC(=O)c5cnc(C6CC6)o5)c(F)c4)ccnc3[nH]2)cn1 [Example 18]	–
1000 to 5000 nM	> 5000 nM	Cc1c(CNC(=O)c2noc(C(C)(C)C)n2)cccc1-c1ccnc2[nH]c(-c3cnn(C)c3)nc12 [Example 88, 5-tert-Butyl-N-([2-methyl-3-[2-(1-methyl-1H-pyrazol-4-yl)-3H-imidazo[4,5-b]pyridin-7-yl]phenyl]methyl)-1,2,4-oxadiazole-3-carboxamide]	–
100 to 1000 nM	100 to 1000 nM	Cn1cc(-c2nc3c(-c4ccc(CNC(=O)c5csc(C(F)(F)F)n5)c(F)c4)ccnc3[nH]2)cn1 [Example 22, 2-Trifluoromethyl-thiazole-4-carboxylic acid 2-fluoro-4-[2-(1-methyl-1H-pyrazol-4-yl)-3H-imidazo[4,5-b]pyridin-7-yl]-benzylamide]	–
< 100 nM	< 100 nM	Cn1ccc(-c2nc3c(-c4ccc(CNC(=O)c5nnc(C(C)(C)C)o5)c(F)c4)ccnc3[nH]2)cc1=O [Example 141, 5-tert-Butyl-[1,3,4]oxadiazole-2-carboxylic acid 2-fluoro-4-[2-(1-methyl-2-oxo-1,2-dihydro-pyridin-4-yl)-3H-imidazo[4,5-b]pyridin-7-yl]-benzylamide]	–
